From US8946409B2, “Polycyclic β lactam derivatives for the treatment of cancer” (Board of Regents, The University of Texas System, priority 2011, dated 2015)
Like-named read-outs stand apart in the source and are kept apart here.

Legend:
PC-3 = test: MTT assay, PC-3 cells; assay type: cell-based, human; conditions: PC-3, carcinoma of the prostate, 72 hours, Table 1, read-out: IC50 in Cancer Cells Using the MTT Assay
Procedure: (§1) 8×10^3 cells/well were plated in a […]. Stock solutions of the agents were made in DMSO. Dilution of the compounds were in media with 10% FBS (fetal bovine serum). The cells were incubated in the drug for 72 hours and cell viability was determined by the MTT assay. IC50 was then calculated.

A-549 = test: MTT assay, A-549 cells; assay type: cell-based, human; conditions: A-549, Non-Small Cell Carcinoma of the Lung, 72 hours, Table 1, read-out: IC50 in Cancer Cells Using the MTT Assay
Procedure: as §1

HT-29 = test: MTT assay, HT-29 cells; assay type: cell-based, human; conditions: HT-29, colon carcinoma, 72 hours, Table 1, read-out: IC50 in Cancer Cells Using the MTT Assay
Procedure: as §1

PANC-1 = test: MTT assay, PANC-1 cells; assay type: cell-based, human
Procedure: as §1

BRO = test: MTT assay, BRO cells; assay type: cell-based, human; conditions: melanoma, 72 hours, Table 1, read-out: IC50 in Cancer Cells Using the MTT Assay
Procedure: as §1

MDA-231 = test: MTT assay, MDA-231 cells; assay type: cell-based, human; conditions: MDA-231, breast cancer, 72 hours, Table 1, read-out: IC50 in Cancer Cells Using the MTT Assay
Procedure: as §1

Miapaca-2 = test: MTT assay, Miapaca-2 cells; assay type: cell-based, human; conditions: for IC50: Homo sapiens, MIA PaCa-2, Miapaca-2, Table 2, read-out: IC50 against Human Pancreatic Cancer Lines Using the MTT Assay
Procedure: as §1

BXPC-3 = test: MTT assay, BXPC-3 cells; assay type: cell-based; conditions: Homo sapiens, Table 2, read-out: IC50 against Human Pancreatic Cancer Lines Using the MTT Assay
Procedure: as §1

ASCP-1 = test: MTT assay, ASCP-1 cells; assay type: cell-based; conditions: Homo sapiens, Table 2, read-out: IC50 against Human Pancreatic Cancer Lines Using the MTT Assay
Procedure: as §1

[1] = Body weight of tumor-bearing mice during treatment; assay type: in vivo, athymic nude mice; conditions: determined weekly through the treatment regimen
Procedure: (§2) The anti-tumorigenic activity of TX-262 was assessed in 4 week old male athymic nude mice by using a luciferase gene, stably-expressing, highly aggressive line of human pancreatic cells, MPanc96. 2×10^5/50 ul luciferase-labeled MPanc96 cells were injected directly into the mouse pancreas. […] Bioluminescent imagining was utilized to estimate tumor volume and location and mice were then divided into two groups such that the mean tumor size was equal between the groups. For the next five weeks mice in the control group were treated with DMSO only; while Group II mice were treated Monday through Friday as follows: 100 mg/K bw i.p. at zero time [AM] and a booster dose of 25 mg/K bw i.p. 90 minutes later. Each week body weight and mortality were recorded and tumor growth was monitored by bioluminescence imaging.

MPanc96 cells = test: In vivo anti-tumorigenic activity, luciferase-labeled MPanc96 cells injected into mouse pancreas; set-up: species or system athymic nude mice
Procedure: as §2
Bioluminescence imaging utilized a cryogenically cooled image system coupled to a data acquisition computer running LivingImage Software [Xenogen Corp., Alameda Calif.]. Prior to imaging, the mice were anesthetized in an acrylic chamber using 1.5% isofluoroane/air mixture and injected i.p. with 40 mg/ml of luciferin potassium salt in PBS at a dose of 150 mg/K bw.
A digital grayscale animal image was acquired followed by acquisition and overlay of a pseudo color image representing the spacial distribution of detected photons emerging from active luciferase within the mouse. […]

SW-1990 = test: MTT assay, SW-1990 cells; assay type: cell-based; conditions: Homo sapiens, SW1990, Table 2, read-out: IC50 against Human Pancreatic Cancer Lines Using the MTT Assay
Procedure: as §1

CoLo35FG = test: MTT assay, CoLo35FG cells; assay type: cell-based; conditions: Homo sapiens, Table 2, read-out: IC50 against Human Pancreatic Cancer Lines Using the MTT Assay
Procedure: as §1

Pan02.03 = test: MTT assay, Pan02.03 cells; assay type: cell-based; conditions: Homo sapiens, Table 2, read-out: IC50 against Human Pancreatic Cancer Lines Using the MTT Assay
Procedure: as §1

[2] = PANC-1, pancreatic cancer, 72 hours, Table 1, read-out: IC50 in Cancer Cells Using the MTT Assay
[3] = Homo sapiens, PANC-1, PANC-1, Table 2 (average of runs), read-out: IC50 against Human Pancreatic Cancer Lines Using the MTT Assay

Row | Compound | IC50 (PC-3) [nM] | IC50 (A-549) [nM] | IC50 (HT-29) [nM] | IC50 (PANC-1; [2]) [nM] | IC50 (BRO) [nM] | IC50 (MDA-231) [nM] | IC50 (Miapaca-2) [nM] | IC50 (BXPC-3) [nM] | IC50 (ASCP-1) [nM] | IC50 (PANC-1; [3]) [nM] | IC50 (SW-1990) [nM] | IC50 (Pan02.03) [nM] | other results
1 | N.N.[Cl][Pt][Cl] [Cisplatin, cisplatin] | 2100 | > 100000 | 17000 | > 100000 | 5700 | 10100 | – | – | – | – | – | – | –
2 | CN1CCN(C(=O)CCC(=O)Nc2cc3c4ccccc4ccc3c3ccccc23)CC1 [Compound 1b, 1-N-6′-Chrysenyl-4′-4-N-methylpiperazine-butane-1,4-dicarboxyamide] | 27300 | > 100000 | 16700 | > 100000 | 33600 | 12200 | – | – | – | – | – | – | –
3 | CS(=O)(=O)O[C@H]1C(=O)N(c2cc3c4ccccc4ccc3c3ccccc23)C1c1ccccn1 (stereo partly drawn) [Compound 12, (3R)-1-(chrysen-6-yl)-2-oxo-4-(pyridin-2-yl)azetidin-3-yl methanesulfonate] | – | – | – | – | – | – | 12000 | 430 | 1500 | < 1000 | 1300 | 390 | Effective concentration relative to the concentration required by GEM (Miapaca-2; GEM-resistant line Miapaca-2): approximately one-half; IC50 (PC-3; Homo sapiens): 510 nM; IC50 (A-549; Homo sapiens, A549): 960 nM; IC50 (HT-29; Homo sapiens): 360 nM; Weights of mice, treated versus control [1]: No significant differences; IC50 (PANC-1; Homo sapiens, PANC-1, 72 h, PANC-1, pancreatic cancer, 72 hours, Table 1, read-out: IC50 in Cancer Cells Using the MTT Assay): 430 nM; IC50 (PANC-1; PANC-1, Table 2 (average of runs), read-out: IC50 against Human Pancreatic Cancer Lines Using the MTT Assay): 750 nM; Viable tumor mass relative to that in control mice (MPanc96 cells; at 5 weeks, 100 mg/K bw i.p. plus 25 mg/K bw i.p. 90 minutes later, Monday through Friday, bioluminescence imaging): approximately 33%; Surviving (viable) mice (MPanc96 cells; at 6 weeks, control mice 20%): 80%; IC50 (CoLo35FG): 2700 nM; IC50 (BRO; Homo sapiens): 640 nM; IC50 (MDA-231; Homo sapiens, MDA-MB-231): 430 nM
4 | Nc1ccn([C@@H]2O[C@H](CO)[C@@H](O)C2(F)F)c(=O)n1 [GEM, gemcitabine] | – | – | – | – | – | – | 25700 | 300 | 100 | > 300000 | 400 | 150 | IC50 against Human Pancreatic Cancer Lines Using the MTT Assay (PANC-1; PANC-1, Table 2 (average of runs)): inactive
